Laboratory results reported in article PMC4949556, “Subtle Structural Differences Trigger Inhibitory Activity of Propafenone Analogues at the Two Polyspecific ABC Transporters: P‐Glycoprotein (P‐gp) and Breast Cancer Resistance Protein (BCRP)” (Chemmedchem, 2016).

Key:
Format in all cases: cell-based
P-gp / BCRP = biological target: T1, P-gp / BCRP (Homo sapiens, UniProt Q9UNQ0); test: BCRP inhibition: steady-state mitoxantrone accumulation in BCRP-expressing PLB985 cells (flow cytometry); conditions: human, pH 7.4, probe daunorubicin (3 µM) for P-gp; mitoxantrone (7 µM) for BCRP; IC50 P-gp / IC50 BCRP; read-out: selectivity index (SI) P-gp/BCRP
T1 construct: expressed in transfected cells; host or cells: PLB985 human myeloid leukemia cells stably expressing BCRP (gift of B. Sarkadi and K. Nemet, Budapest)
Method: (§1) P‐gp and BCRP inhibitory activity was assessed by implementing an intracellular accumulation assay of daunorubicin or mitoxantrone in cells overexpressing P‐gp or BCRP, respectively. In a first run, the effect of compounds 5, 6, 10, 11, and 16 (Figure 2) at 100 μM final concentration was tested (Figure 3). All compounds showing an inhibitory effect of more than 50 % compared with full inhibition by the known inhibitors of P‐gp (verapamil) and BCRP (Ko143) were further processed, and IC50 values were determined (IC50 curves and Hill coefficients are available in Figure S1 and Table S3 in the Supporting Information). […] For P‐gp, nine compounds were classified as inhibitors (5 a, 5 b, 6 a, 10 a, 10 b, 11 b, 16 a, 16 b, 16 c).
(§2) Cell culture: The human myeloid leukemia PLB985 parental and stably expressing BCRP cell lines31 were kindly provided by B. Sarkadi (Institute of Enzymology, Research Centre for Natural Sciences, Budapest, Hungary) and K. Nemet (Creative Cell Ltd., Budapest, Hungary). Both cell lines were cultured in RPMI 1640 supplemented with 10 % FBS and 100 IU mL^−1 of penicillin and streptomycin. The human T‐lymphoblast cell line CCRF VCR1000, overexpressing P‐gp, was obtained by stepwise selection of CCRF‐CEM in vincristine‐containing medium32 and was kindly provided by V. Gekeler (Altana‐Pharma formerly Byk‐Gulden, Konstanz, Germany). CCRF VCR1000 cells were cultured in RPMI 1640 medium containing 20 % FBS and were treated regularly with vincristine (1 μg mL^−1) for about 72 h, followed by centrifugation (300 g, 5 min, RT) and resuspension in normal culture medium. All cell lines were maintained at 37 °C in an atmosphere containing 5 % CO2 with 95 % relative humidity.
(§3) Steady‐state accumulation experiments: For BCRP and P‐gp inhibition studies, the steady‐state accumulation of mitoxantrone (7 μM) and daunorubicin (3 μM), respectively, was performed as previously described.33 Briefly, cells were harvested, pelleted (300 g, 5 min, 4 °C), diluted to a concentration of 12×10^6 cells mL^−1 in HPMI (10 mM Hepes, 120 mM NaCl, 5 mM KCl, 0.4 mM MgCl2, 0.04 mM CaCl2, 10 mM glucose, 10 mM NaHCO3, 5 mM Na2HPO4, pH 7.4 with NaOH) and kept on ice for further processing. For each data point, the cell suspension (25 μL) was preincubated for 5 min at 37 °C with 2 % DMSO (25 μL) in HPMI alone (DMSO control) or containing different concentrations of test compound solutions. Thereafter, cells were preloaded with daunorubicin (50 μL) or mitoxantrone (50 μL) for 30 or 20 min at 37 °C, respectively, to reach a final concentration of 3 or 7 μM, respectively. […] Preloading was stopped by chilling cells on ice for 5 min followed by the addition of 400 μL ice‐cold PBS. Cells were pelleted (300 g, 5 min, 4 °C), the supernatant was discarded, and the cell pellet was resuspended in ice‐cold PBS (150 μL). Until measurement, cells were kept on ice and in the dark. Immediately before cell fluorescence measurement by flow cytometry (BD Accuri C6 and BD FACSCalibur, Becton Dickinson, San Jose, CA, USA; MACSQuant, MiltenyiBiotec GmbH, BergischGladbach, Germany), 50 μL of 4′,6‐diamidin‐2‐phenylindole solution (DAPI, 4 μg mL^−1 in PBS) was added to gate out dead cells. 100 μM verapamil and 1 μM Ko143 were used as positive controls for P‐gp and BCRP inhibition, respectively. […]

BCRP = biological target: T2, BCRP (Homo sapiens, UniProt Q9UNQ0); test: as above
T2 construct: expressed in transfected cells; host or cells: PLB985 human myeloid leukemia cells stably expressing BCRP (gift of B. Sarkadi and K. Nemet, Budapest)
Method: as §1, §2, §3

P-gp = biological target: T3, P-gp (Homo sapiens, UniProt P08183); test: P-gp inhibition: steady-state daunorubicin accumulation in P-gp-overexpressing CCRF VCR1000 cells (flow cytometry)
T3 construct: was obtained by stepwise selection of CCRF‐CEM in vincristine‐containing medium; endogenous in cells; host or cells: CCRF VCR1000 (vincristine-selected subline of CCRF-CEM human T-lymphoblasts; gift of V. Gekeler)
Method: as §1, §2, §3

[1] = Hill coefficient of IC50 measurement, mean ± SD of n experiments
[2] = IC50 below 10 μM considered active

T2 sequence (Q9UNQ0 whole entry): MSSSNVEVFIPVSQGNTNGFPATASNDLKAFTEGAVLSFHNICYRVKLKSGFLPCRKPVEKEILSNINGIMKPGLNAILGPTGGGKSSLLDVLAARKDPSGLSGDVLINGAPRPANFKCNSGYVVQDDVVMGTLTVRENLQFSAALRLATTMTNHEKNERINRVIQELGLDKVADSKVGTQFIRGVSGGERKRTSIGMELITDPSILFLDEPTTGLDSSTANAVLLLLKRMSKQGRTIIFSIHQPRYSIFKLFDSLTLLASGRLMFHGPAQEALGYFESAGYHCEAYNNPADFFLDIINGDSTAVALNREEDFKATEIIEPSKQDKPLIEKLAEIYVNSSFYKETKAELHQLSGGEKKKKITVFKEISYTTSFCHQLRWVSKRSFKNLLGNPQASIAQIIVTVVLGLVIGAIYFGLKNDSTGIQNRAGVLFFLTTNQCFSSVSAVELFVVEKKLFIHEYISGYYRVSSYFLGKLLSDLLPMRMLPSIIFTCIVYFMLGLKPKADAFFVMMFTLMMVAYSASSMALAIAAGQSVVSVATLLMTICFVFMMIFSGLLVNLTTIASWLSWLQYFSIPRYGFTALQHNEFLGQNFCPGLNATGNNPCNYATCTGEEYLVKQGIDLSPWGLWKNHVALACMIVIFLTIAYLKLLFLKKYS
T3 sequence (P08183 whole entry): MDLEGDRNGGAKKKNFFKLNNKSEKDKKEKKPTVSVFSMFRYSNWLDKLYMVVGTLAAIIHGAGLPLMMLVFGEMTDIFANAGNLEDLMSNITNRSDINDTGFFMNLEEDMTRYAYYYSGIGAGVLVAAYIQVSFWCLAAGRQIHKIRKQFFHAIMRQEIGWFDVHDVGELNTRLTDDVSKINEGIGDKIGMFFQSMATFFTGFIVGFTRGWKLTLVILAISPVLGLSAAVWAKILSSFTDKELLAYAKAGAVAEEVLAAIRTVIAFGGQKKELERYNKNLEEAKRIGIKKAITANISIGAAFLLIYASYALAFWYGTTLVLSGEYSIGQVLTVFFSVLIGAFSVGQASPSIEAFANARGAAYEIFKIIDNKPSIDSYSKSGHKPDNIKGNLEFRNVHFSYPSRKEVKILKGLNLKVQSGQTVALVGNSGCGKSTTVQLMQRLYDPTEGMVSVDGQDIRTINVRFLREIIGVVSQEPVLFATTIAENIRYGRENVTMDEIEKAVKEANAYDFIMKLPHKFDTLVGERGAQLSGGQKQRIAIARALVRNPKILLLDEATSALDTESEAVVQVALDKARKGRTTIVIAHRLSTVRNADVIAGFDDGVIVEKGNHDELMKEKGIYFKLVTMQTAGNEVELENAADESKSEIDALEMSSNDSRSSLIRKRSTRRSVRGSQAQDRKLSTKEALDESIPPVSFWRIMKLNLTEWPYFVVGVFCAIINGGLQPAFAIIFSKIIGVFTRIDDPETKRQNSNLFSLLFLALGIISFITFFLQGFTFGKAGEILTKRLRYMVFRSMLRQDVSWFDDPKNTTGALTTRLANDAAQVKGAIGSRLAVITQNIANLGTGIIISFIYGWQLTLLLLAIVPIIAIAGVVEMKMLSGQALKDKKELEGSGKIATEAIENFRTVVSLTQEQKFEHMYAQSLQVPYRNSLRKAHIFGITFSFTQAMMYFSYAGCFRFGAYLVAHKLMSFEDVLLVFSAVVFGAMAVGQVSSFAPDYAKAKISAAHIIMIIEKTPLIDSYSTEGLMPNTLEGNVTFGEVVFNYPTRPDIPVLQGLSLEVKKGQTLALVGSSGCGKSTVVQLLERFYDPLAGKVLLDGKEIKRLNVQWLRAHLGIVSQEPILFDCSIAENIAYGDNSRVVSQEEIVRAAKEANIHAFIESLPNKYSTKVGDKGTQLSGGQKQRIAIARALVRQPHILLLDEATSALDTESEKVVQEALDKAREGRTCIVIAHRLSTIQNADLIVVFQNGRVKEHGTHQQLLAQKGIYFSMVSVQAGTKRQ
T1 sequence (Q9UNQ0 whole entry): as the sequence (Q9UNQ0 whole entry) above

With O=C(CCc1ccccc1)c1ccccc1OCC(O)CNC(=O)C1CCCN1 (centres unmarked) [Compound 5 a, N ‐(2‐hydroxy‐3‐(2‐(3‐phenylpropanoyl)phenoxy)propyl)pyrrolidine‐2‐carboxamide] the selectivity ratio (P-gp / BCRP) was 0.13, the IC50 (BCRP; BCRP IC50, mitoxantrone 7 μM, PLB985 BCRP cells, mean±SD, at least n=3 (11 a n=2)) was 16.1 µM and the “Hill coefficient BCRP” value (BCRP; [1]) was 1.4±0.3. For the same compound, the “in vitro classification as BCRP inhibitor” value (BCRP; [2]) was “borderline activity”, the “Hill coefficient P-gp” value (P-gp; [1]) was 1.3±0.2 and the “in vitro classification as P-gp inhibitor” value (P-gp; [2]) was “inhibitors”. The IC50 (P-gp; daunorubicin 3 μM, CCRF VCR1000 cells, mean±SD, at least n=3) was 2.1 ± 0.4 µM and the “fold higher IC50 value for BCRP than for P-gp” value (P-gp; ratio IC50 BCRP / IC50 P-gp) was “more than fivefold”.
